In patent US8729269B2, “Substituted piperidino phenyloxazolidinones having antimicrobial activity with improved in vivo efficacy” (Wockhardt Limited, priority 2003, dated 2014):
In brackets after ≈: the same amount, converted by molar mass.

Tests used:
[1] = test system: Streptococcus pneumoniae 49619 (SPN 49619); experiment: Minimum Inhibitory Concentration (MIC) determination, agar with 5% sheep blood; assay type: cell-based; conditions: Mueller Hinton agar containing 5% sheep blood
Protocol: (§1) Overnight grown cultures of Methicilin resistant Staphylococcus aureus 32 (MRSA 32), Methicilin resistant Staphylococcus epidermidis 118 (MRSE 118), Vancomycin resistant enterococci 303 (VRE 303) in Tryptic Soya broth were diluted in Mueller Hinton Broth to give optical density matching with MacFarland tube 0.5 standard. Cultures were further diluted 1:10 in Mueller Hinton broth. Using Denley's multipoint inoculator, 10^4 cells were deposited on Mueller Hinton agar (Difco) containing range of 2 fold dilutions of test compounds. These plates were incubated for 24 hrs at 35° C. and MIC results recorded. MIC is defined as minimum drug concentration that inhibits test organisms. For determining MIC of test compounds against Streptococcus pneumoniae 49619 (SPN 49619) and Streptococcus pyogenes 801 (SPY 801), Mueller Hinton agar containing 5% sheep blood was employed.

[2] = test system: Streptococcus pyogenes 801 (SPY 801); experiment: as above; assay type: cell-based; conditions: Mueller Hinton agar containing 5% sheep blood
Protocol: as §1

[3] = test system: methicillin resistant Staphylococcus aureus strain MRSA 32; experiment: Murine Assay Procedure (in vivo efficacy, MRSA 32 infection); conditions: swiss mice infected intraperitoneally with MRSA 32, oral gavage 1 h after infection, repeat dose 3 hrs later, percentage survival on Day 7
Protocol: Oxazolidinone new chemical entities (NCEs) were evaluated for their in vivo efficacy in a murine infection caused by multi-drug resistant, methicillin resistant Staphylococcus aureus strain, referred to as MRSA 32, a clinical isolate obtained from a hospitalized patient. The procedure used for the murine assay is as follows:
Four weeks old swiss mice of 18-22 gm body weight were infected with MRSA 32 strain suspended in 5% Hog gastric mucin. The infecting dose of bacteria was set at 1-2×10^8 CFU/animal. The infecting dose was administered in 0.5 ml volume injected into peritonial cavity of mice. The treatment with oxazolidinone NCEs was started one hour after infection by administering 100-200 μl of the suspensions of oxazolidinone compounds in 5% Tween 80 by oral gavage. A repeat dose was similarly administered 3 hrs later. Each oxazolidinone NCE was tested at 2-3 different dosages in the range of 2.5 mg/kg to 20 mg/kg. In each dose group 6 mice were included. As an infection control group 12 mice were infected with MRSA 32 strain without giving any treatment. For compounds affording protection of MRSA infected mice, ED50 dosages were calculated on the basis of percentage survival on Day 7 after infection.

[4] = test system: Methicilin resistant Staphylococcus aureus 32 (MRSA 32); experiment: Minimum Inhibitory Concentration (MIC) determination, agar dilution; assay type: cell-based; conditions: Mueller Hinton agar, 24 hrs at 35° C.
Protocol: as §1

[5] = test system: Vancomycin resistant enterococci 303 (VRE 303); experiment: as above; assay type: cell-based; conditions: Enterococcus, Mueller Hinton agar, 24 hrs at 35° C.
Protocol: as §1

[6] = test system: Methicilin resistant Staphylococcus epidermidis 118 (MRSE 118); experiment: as above; assay type: cell-based; conditions: Mueller Hinton agar, 24 hrs at 35° C.
Protocol: as §1

| Compound | MIC [1] [µg/mL] | MIC [2] [µg/mL] | MIC [4] [µg/mL] | MIC [5] [µg/mL] | MIC [6] [µg/mL] | ED50 [3] [mg/kg] |
| --- | --- | --- | --- | --- | --- | --- |
| CC(=O)NC[C@H]1CN(c2ccc(N3CCC(F)(COS(C)(=O)=O)CC3)c(F)c2)C(=O)O1 [Example 12, (S)—N-{3-[4-(4-Fluoro-4-methanesulfonyloxymethylpiperidin-1-yl)-3-fluorophenyl]-2-oxo-oxazolidin-5-ylmethyl}-acetamide] | 0.25 (≈ 0.542 µM) | 0.25 (≈ 0.542 µM) | 1 (≈ 2.17 µM) | 2 (≈ 4.33 µM) | 0.5 (≈ 1.08 µM) | 2.5 |
| CC(=O)NC[C@H]1CN(c2ccc(N3CCC(O)(CN=[N+]=[N-])CC3)c(F)c2)C(=O)O1 [Example 25, (S)—N-{3-[4-(4-Azidomethyl-4-hydroxypiperidin-1-yl)-3-fluorophenyl]-2-oxo-oxazolidin-5-ylmethyl}-acetamide] | 2 (≈ 4.92 µM) | 2 (≈ 4.92 µM) | 4 (≈ 9.84 µM) | 2 (≈ 4.92 µM) | 1 (≈ 2.46 µM) | 5 |
| CS(=O)(=O)NCC1CN(c2ccc(N3CCC(O)(CN=[N+]=[N-])CC3)c(F)c2)C(=O)O1 (stereo in doubt) [Example 40, (S)—N-{3-[4-(4-Azidomethyl-4-hydroxypiperidin-1-yl)-3-fluorophenyl]-2-oxo-oxazolidin-5-ylmethyl}-methanesulfonamide] | > 8 | > 8 | 8 (≈ 18.1 µM) | > 16 | 8 (≈ 18.1 µM) | 10 |
| CS(=O)(=O)OC[C@H]1CN(c2ccc(N3CCC(=O)CC3)c(F)c2)C(=O)O1 [Example 168, (R)—N-{3-[4-(4-oxo-piperidin-1-yl)-3-fluorophenyl]-2-oxo-oxazolidin-5-ylmethyl}-methanesulfonate] | 4 (≈ 10.4 µM) | 4 (≈ 10.4 µM) | 4 (≈ 10.4 µM) | 4 (≈ 10.4 µM) | 2 (≈ 5.18 µM) | 10 |
| CC(=O)NC[C@H]1CN(c2ccc(N3CCC4(CC3)C[C@H]4C#N)c(F)c2)C(=O)O1 [Example 98, (1R,5S)—N-{3-[4-(1-cyano-6-aza-spiro[2.5]oct-6-yl)-3-fluorophenyl]-2-oxo-oxazolidin-5-ylmethyl}-acetamide] | 1 (≈ 2.59 µM) | 1 (≈ 2.59 µM) | 2 (≈ 5.18 µM) | 2 (≈ 5.18 µM) | 1 (≈ 2.59 µM) | 5 |
| CC(=O)NC[C@H]1CN(c2ccc(N3CCC(O)(CN=[N+]=[N-])CC3)cc2)C(=O)O1 [Example 178, (S)—N-{3-[4-(4-azidomethyl-4-hydroxy-piperidin-1-yl)-phenyl]-2-oxo-oxazolidin-5-ylmethyl}-acetamide] | 4 (≈ 10.3 µM) | 4 (≈ 10.3 µM) | 4 (≈ 10.3 µM) | 8 (≈ 20.6 µM) | 2 (≈ 5.15 µM) | 10 |
| CC(=S)NC[C@H]1CN(c2ccc(N3CCC(C#N)(Nc4ccc(C#N)cc4)CC3)c(F)c2)C(=O)O1 [Example 87, (S)—N-{3-[4-(4-(1-(4-Cyanophenylamino))-4-cyanopiperidin-1-yl)-3-fluorophenyl]-2-oxo-oxazolidin-5-ylmethyl}-thioacetamide] | 0.8 (≈ 1.62 µM) | 0.8 (≈ 1.62 µM) | 1 (≈ 2.03 µM) | 0.4 (≈ 0.812 µM) | 0.5 (≈ 1.02 µM) | 10 |
| CC(=O)NC[C@H]1CN(c2ccc(N3CCC4(CC3)CC4C#N)c(F)c2)C(=O)O1 (mixture of isomers) [Example 97, (1RS,5S)—N-{3-[4-(1-cyano-6-aza-spiro[2.5]oct-6-yl)-3-fluorophenyl]-2-oxo-oxazolidin-5-ylmethyl}-acetamide] | 2 | 2 | 4 | 2 | 1 | 5 |
| CC(=O)NC[C@H]1CN(c2ccc(N3CCC4(CC3)COCO4)c(F)c2)C(=O)O1 [Example 125, (S)—N-{3-[4-(1,3-dioxa-8-aza-spiro[4.5]dec-8-yl)-3-fluorophenyl]-2-oxo-oxazolidin-5-ylmethyl}-acetamide] | 2 (≈ 5.08 µM) | 2 (≈ 5.08 µM) | 4 (≈ 10.2 µM) | 4 (≈ 10.2 µM) | 2 (≈ 5.08 µM) | 10 |
| CC(=O)NC[C@H]1CN(c2ccc(N3CCC4(CC3)COCCCO4)c(F)c2)C(=O)O1 [Example 164] | 4 (≈ 9.49 µM) | 4 (≈ 9.49 µM) | 4 (≈ 9.49 µM) | 8 (≈ 19 µM) | 2 (≈ 4.75 µM) | 10 |
| CS(=O)(=O)OC[C@H]1CN(c2ccc(N3CCC(O)CC3)c(F)c2)C(=O)O1 [Example 172, (R)—N-{3-[4-(4-hydroxy-piperidin-1-yl)-3-fluorophenyl]-2-oxo-oxazolidin-5-ylmethyl}-methanesulfonate] | > 8 | > 8 | 8 (≈ 20.6 µM) | 16 (≈ 41.2 µM) | 8 (≈ 20.6 µM) | 10 |
| CC(=O)NC[C@H]1CN(c2ccc(N3CCC4(CC3)NCC[S+]4[O-])c(F)c2)C(=O)O1 (stereo partly drawn) [Example 112, (S)—N-{3-[4-(4,8-diaza-1-sulfinyl-spiro[4.5]dec-8-yl)-3-fluorophenyl]-2-oxo-oxazolidin-5-ylmethyl}-acetamide] | 2 (≈ 4.71 µM) | 2 (≈ 4.71 µM) | 4 (≈ 9.42 µM) | 2 (≈ 4.71 µM) | 1 (≈ 2.36 µM) | 10 |

More lines, main results first:

| MIC [1] [µg/mL] | MIC [2] [µg/mL] | MIC [4] [µg/mL] | MIC [5] [µg/mL] | MIC [6] [µg/mL] | Compound | ED50 [3] [mg/kg] |
| --- | --- | --- | --- | --- | --- | --- |
| 2 (≈ 5.39 µM) | 2 (≈ 5.39 µM) | 2 (≈ 5.39 µM) | 2 (≈ 5.39 µM) | 1 (≈ 2.69 µM) | CC(=O)NC[C@H]1CN(c2ccc(N3CCC(F)(F)CC3)c(F)c2)C(=O)O1 [Example 16, (S)—N-{3-[4-(4,4-Difluoropiperidin-1-yl)-3-fluorophenyl]-2-oxo-oxazolidin-5-ylmethyl}-acetamide] | 5 |
| 2 (≈ 4.71 µM) | 2 (≈ 4.71 µM) | 8 (≈ 18.8 µM) | 8 (≈ 18.8 µM) | 2 (≈ 4.71 µM) | CC(=O)NC[C@H]1CN(c2ccc(N3CCC(F)(CNC(C)=O)CC3)c(F)c2)C(=O)O1 [Example 6, (S)—N-{3-[4-(4-Fluoro-4-(N-acetylamino)-methylpiperidin-1-yl)-3-fluorophenyl]-2-oxo-oxazolidin-5-ylmethyl}-acetamide] | 10 |
| 2 (≈ 4.9 µM) | 2 (≈ 4.9 µM) | 2 (≈ 4.9 µM) | 2 (≈ 4.9 µM) | 1 (≈ 2.45 µM) | CC(=O)NC[C@H]1CN(c2ccc(N3CCC(F)(CN=[N+]=[N-])CC3)c(F)c2)C(=O)O1 [Example 4, (S)—N-{3-[4-(4-Fluoro-4-azidomethylpiperidin-1-yl)-3-fluorophenyl]-2-oxo-oxazolidin-5-ylmethyl}-acetamide] | 10 |
| 1 (≈ 2.56 µM) | 1 (≈ 2.56 µM) | 4 (≈ 10.2 µM) | 4 (≈ 10.2 µM) | 1 (≈ 2.56 µM) | CC(=O)NC[C@H]1CN(c2ccc(N3CCC(O)(CC#N)CC3)c(F)c2)C(=O)O1 [Example 21, (S)—N-{3-[4-(4-Cyanomethyl-4-hydroxypiperidin-1-yl)-3-fluorophenyl]-2-oxo-oxazolidin-5-ylmethyl}-acetamide] | 2.5 |
| 0.5 (≈ 1.27 µM) | 1 (≈ 2.55 µM) | 1 (≈ 2.55 µM) | 1 (≈ 2.55 µM) | 0.5 (≈ 1.27 µM) | CC(=O)NC[C@H]1CN(c2ccc(N3CCC(F)(CC#N)CC3)c(F)c2)C(=O)O1 [Example 2, (S)—N-{3-[4-(4-Fluoro-4-cyanomethylpiperidin-1-yl)-3-fluorophenyl]-2-oxo-oxazolidin-5-ylmethyl}-acetamide] | 2.5 |
| 2 (≈ 5.22 µM) | 2 (≈ 5.22 µM) | 2 (≈ 5.22 µM) | 4 (≈ 10.4 µM) | 0.5 (≈ 1.3 µM) | CC(=O)NC[C@H]1CN(c2ccc(N3CCC(F)(CO)CC3)c(F)c2)C(=O)O1 [Example 9, (S)—N-{3-[4-(4-Fluoro-4-hydroxymethylpiperidin-1-yl)-3-fluorophenyl]-2-oxo-oxazolidin-5-ylmethyl}-acetamide] | 5 |
| 2 (≈ 5.06 µM) | 2 (≈ 5.06 µM) | 8 (≈ 20.2 µM) | 4 (≈ 10.1 µM) | 4 (≈ 10.1 µM) | COCC1(O)CCN(c2ccc(N3C[C@H](CNC(C)=O)OC3=O)cc2F)CC1 [Example 33, (S)—N-{3-[4-(4-Methoxymethyl-4-hydroxypiperidin-1-yl)-3-fluorophenyl]-2-oxo-oxazolidin-5-ylmethyl}-acetamide] | 10 |
| 1 (≈ 2.03 µM) | 1 (≈ 2.03 µM) | 1 (≈ 2.03 µM) | 2 (≈ 4.05 µM) | 1 (≈ 2.03 µM) | CC(=O)NC[C@H]1CN(c2ccc(N3CCC(F)(CI)CC3)c(F)c2)C(=O)O1 [Example 15, (S)—N-{3-[4-(4-Fluoro-4-iodomethylpiperidin-1-yl)-3-fluorophenyl]-2-oxo-oxazolidin-5-ylmethyl}-acetamide] | 10 |
